According to ChEMBL document CHEMBL1201862, “PubChem BioAssay data set” (2004):
Blank lines part the entries; values can stand above or below the compound they belong to. Active and inactive are the calls of the source.

What was measured:
[1] = Fluorescence-based cell-based high throughput dose response assay for inhibitors of the interaction of nucleotide-binding oligomerization domain containing 2 (NOD2) and the receptor-interacting serine-threonine kinase 2 (RIPK2).; format: functional; conditions: Homo sapiens
Aurora kinase A = molecular target: T1, Aurora kinase A (Homo sapiens, UniProt O14965); format: functional;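 note: value from the Navigating the Kinome kinase panel profiling, panel entry STK6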
T1 sequence (O14965 whole entry): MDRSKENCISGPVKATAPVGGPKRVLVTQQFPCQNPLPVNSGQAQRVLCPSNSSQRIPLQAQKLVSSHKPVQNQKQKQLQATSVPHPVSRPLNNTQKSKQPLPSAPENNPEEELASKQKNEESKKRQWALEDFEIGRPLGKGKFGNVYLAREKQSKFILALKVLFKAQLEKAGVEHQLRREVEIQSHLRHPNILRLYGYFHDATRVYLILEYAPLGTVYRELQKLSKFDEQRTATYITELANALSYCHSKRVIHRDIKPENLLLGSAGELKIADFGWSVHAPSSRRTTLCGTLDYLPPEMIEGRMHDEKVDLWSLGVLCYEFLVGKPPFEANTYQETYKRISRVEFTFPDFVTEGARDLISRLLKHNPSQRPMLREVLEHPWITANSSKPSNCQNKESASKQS

Aurora kinase B = Aurora kinase B (Homo sapiens, UniProt Q96GD4); format: functional
Orexin receptor type 2 [2] = molecular target: T2, Orexin receptor type 2 (Homo sapiens, UniProt O43614); assay: Counterscreen assay for antagonists of the orexin 1 receptor (OX1R; HCRTR1): Fluorescence-based cell-based dose response assay for antagonists of the orexin 2 receptor (OX2R; HCRTR2), run by assay provider.; format: functional
T2 sequence (O43614 whole entry): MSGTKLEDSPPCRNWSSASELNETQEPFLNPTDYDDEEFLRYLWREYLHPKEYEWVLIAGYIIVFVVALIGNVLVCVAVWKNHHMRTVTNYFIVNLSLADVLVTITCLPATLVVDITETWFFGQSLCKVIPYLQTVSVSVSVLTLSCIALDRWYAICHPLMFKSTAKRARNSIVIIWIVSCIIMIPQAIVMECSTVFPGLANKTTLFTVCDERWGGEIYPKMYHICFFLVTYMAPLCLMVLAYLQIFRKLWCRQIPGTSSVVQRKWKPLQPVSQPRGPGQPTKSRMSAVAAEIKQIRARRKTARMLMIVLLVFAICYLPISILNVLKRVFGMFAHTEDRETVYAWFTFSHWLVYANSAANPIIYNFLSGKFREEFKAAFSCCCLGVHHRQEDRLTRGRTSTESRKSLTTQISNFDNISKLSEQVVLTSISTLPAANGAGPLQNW

[3] = (§1) Counterscreen for antagonists of the orexin 1 receptor (OX1R; HCRTR1): Fluorescence-based cell-based high throughput dose response assay to identify antagonists of the parental CHO cell line. [Related pubchem assays (depositor defined):AID434989, AID435008, AID463079, AID485270, AID492963, AID492964, AID492965, AID493232, AID504699, AID504701]; format: functional
[4] = molecular target: T3, Orexin/Hypocretin receptor type 1 (Homo sapiens, UniProt O43613); assay: Homogeneous Time Resolved Fluorescence (HTRF)-based cell-based high throughput dose response assay for antagonists of the orexin 1 receptor (OX1R; HCRTR1). [Related pubchem assays (depositor defined):AID434989, AID435008, AID463079, AID485270, AID492963, AID492964, AID492965, AID493232, AID504717, AID504718]; format: functional
T3 sequence (O43613 whole entry): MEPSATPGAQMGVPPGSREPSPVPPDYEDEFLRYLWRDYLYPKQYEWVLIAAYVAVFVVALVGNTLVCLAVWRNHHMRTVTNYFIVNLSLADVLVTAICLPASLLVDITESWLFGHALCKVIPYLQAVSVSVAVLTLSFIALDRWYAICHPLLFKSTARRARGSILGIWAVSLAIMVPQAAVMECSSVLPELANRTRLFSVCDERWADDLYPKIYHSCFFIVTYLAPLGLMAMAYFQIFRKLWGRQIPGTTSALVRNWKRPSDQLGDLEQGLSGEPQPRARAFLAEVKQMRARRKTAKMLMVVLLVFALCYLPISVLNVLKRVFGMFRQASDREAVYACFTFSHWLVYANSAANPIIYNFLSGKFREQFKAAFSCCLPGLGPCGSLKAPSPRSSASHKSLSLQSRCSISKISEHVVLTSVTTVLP

CHO-K1 = assay: as §1, with “Homogeneous time resolved fluorescence (HTRF)-based” for “Fluorescence-based”, “cell-based” for “cell-based high throughput”, “CHO-K1” for “CHO”; format: functional; conditions: Cricetulus griseus;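 note: potency for inhibition of ATP-stimulated IP1 production as antagonists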
[5] = molecular target: T3, Orexin/Hypocretin receptor type 1; assay: Fluorescence-based cell-based high throughput dose response assay for antagonists of the orexin 1 receptor (OX1R; HCRTR1). [Related pubchem assays (depositor defined):AID434989, AID435008, AID463079, AID485270, AID492963, AID492964, AID492965, AID493232, AID504717, AID504718]; format: functional
Orexin receptor type 2 [6] = molecular target: T2, Orexin receptor type 2; assay: Counterscreen assay for antagonists of the orexin 1 receptor (OX1R; HCRTR1): Homogeneous Time Resolved Fluorescence (HTRF)-based cell-based dose response assay for antagonists of the orexin 2 receptor (OX2R; HCRTR2), run by assay provider.; format: functional
[7] = HEp-2 cell cytotoxicity, dose response, cytotoxicity control for RSV inhibitor project, HTS (AID 2410); format: functional; conditions: human respiratory syncytial virus
[8] = molecular target: Ras and Rab interactor 1/Tyrosine-protein kinase ABL1 (Homo sapiens, UniProt P00519+Q13671); format: functional;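 note: biochemical TR-FRET dose-response test measuring inhibition of binding between Rin1 and Abl proteins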
[9] = intracellular Trypanosoma cruzi inhibitors in host cells – cell-based, plate reader, cherry-pick samples, set 3, dose response (AID 651818); format: functional;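 note: compounds incubated with infected cells for about four days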

Chain of Ras and Rab interactor 1/Tyrosine-protein kinase ABL1 (P00519 whole entry): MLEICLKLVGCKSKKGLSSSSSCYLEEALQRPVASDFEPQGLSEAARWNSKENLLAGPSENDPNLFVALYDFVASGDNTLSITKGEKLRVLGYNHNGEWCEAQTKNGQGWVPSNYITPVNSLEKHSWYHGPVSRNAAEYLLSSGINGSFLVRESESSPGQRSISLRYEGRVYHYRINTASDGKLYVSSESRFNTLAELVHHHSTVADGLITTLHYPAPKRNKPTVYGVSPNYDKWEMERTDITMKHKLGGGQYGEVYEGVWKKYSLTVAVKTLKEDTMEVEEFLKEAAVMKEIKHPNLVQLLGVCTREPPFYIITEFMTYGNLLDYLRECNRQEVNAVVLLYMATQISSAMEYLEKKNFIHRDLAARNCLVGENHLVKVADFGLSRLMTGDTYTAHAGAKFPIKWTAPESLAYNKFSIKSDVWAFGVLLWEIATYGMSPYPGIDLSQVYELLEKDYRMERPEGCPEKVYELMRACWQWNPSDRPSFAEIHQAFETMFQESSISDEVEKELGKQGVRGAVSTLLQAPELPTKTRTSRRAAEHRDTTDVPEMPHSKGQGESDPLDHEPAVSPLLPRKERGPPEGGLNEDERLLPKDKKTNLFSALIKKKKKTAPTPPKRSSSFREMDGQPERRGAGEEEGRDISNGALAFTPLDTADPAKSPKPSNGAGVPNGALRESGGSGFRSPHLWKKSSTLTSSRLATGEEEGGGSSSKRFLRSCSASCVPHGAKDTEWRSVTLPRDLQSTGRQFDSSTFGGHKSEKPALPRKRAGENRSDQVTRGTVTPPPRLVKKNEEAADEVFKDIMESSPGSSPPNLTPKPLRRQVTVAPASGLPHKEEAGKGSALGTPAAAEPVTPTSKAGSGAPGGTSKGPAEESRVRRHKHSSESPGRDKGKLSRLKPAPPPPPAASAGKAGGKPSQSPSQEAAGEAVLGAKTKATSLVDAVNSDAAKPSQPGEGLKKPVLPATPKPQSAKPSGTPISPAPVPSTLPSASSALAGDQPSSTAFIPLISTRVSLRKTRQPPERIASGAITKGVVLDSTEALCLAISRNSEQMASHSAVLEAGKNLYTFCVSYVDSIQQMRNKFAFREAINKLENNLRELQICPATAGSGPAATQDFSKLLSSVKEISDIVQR
Chain of Ras and Rab interactor 1/Tyrosine-protein kinase ABL1 (Q13671 whole entry): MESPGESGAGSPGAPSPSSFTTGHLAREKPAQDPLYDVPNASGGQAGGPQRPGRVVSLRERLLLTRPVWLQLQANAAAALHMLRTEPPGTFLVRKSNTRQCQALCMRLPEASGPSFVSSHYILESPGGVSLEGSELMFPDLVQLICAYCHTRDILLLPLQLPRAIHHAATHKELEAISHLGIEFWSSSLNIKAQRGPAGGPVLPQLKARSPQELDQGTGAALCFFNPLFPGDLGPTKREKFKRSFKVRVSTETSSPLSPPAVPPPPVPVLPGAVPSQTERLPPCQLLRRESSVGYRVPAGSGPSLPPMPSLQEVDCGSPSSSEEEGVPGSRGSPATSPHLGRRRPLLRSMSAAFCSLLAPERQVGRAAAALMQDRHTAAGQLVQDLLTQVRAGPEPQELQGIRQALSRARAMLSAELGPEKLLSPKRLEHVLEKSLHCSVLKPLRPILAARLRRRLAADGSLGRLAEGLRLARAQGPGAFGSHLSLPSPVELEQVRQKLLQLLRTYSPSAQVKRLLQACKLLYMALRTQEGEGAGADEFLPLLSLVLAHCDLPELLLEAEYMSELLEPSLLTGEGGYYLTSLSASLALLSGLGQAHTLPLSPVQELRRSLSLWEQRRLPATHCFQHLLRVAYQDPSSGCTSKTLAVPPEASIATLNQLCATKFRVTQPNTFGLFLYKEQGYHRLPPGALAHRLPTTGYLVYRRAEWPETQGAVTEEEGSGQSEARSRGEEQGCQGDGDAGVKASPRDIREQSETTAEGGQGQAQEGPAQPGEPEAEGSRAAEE
Chain of Aurora kinase B (Q96GD4 whole entry): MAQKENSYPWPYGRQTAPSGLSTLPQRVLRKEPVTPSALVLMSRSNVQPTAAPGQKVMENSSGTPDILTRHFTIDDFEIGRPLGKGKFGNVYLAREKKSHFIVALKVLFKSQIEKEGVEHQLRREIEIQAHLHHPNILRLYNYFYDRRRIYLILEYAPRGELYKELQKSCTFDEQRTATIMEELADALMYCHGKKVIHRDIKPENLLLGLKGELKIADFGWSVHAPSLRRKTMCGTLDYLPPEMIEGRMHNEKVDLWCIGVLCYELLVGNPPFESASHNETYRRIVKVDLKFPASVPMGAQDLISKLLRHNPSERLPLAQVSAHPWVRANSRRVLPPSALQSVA

SMILES: CCOC(=O)c1c(SCCN2CCCC2)n(-c2ccccc2)c(=S)n(-c2ccccc2)c1=O
IC50 [1]: 1.09 µM (active)

Ki (Aurora kinase A): 1.26 µM (active)
Ki (Aurora kinase B): 0.0794 µM (active)
SMILES: CC(Nc1cncc(-n2cnc3ccccc32)n1)c1ccc(F)cc1 (centres undefined)

SMILES: COc1ccc(CN2CC[C@H]3C=CC[C@@H](C(=O)Nc4ccc(Cl)c(C(F)(F)F)c4)[C@H]3C2=O)cc1OC
IC50 (Orexin receptor type 2 [2]): > 88.8 µM (inactive)
IC50 [3]: > 49.8 µM (inactive)
IC50 [4]: 0.071 µM (active)
IC50 (CHO-K1): > 66.2 µM (inactive)
IC50 [5]: 3.22 µM (active)
IC50 (cells): 23.6 µM (active)
IC50 (Orexin receptor type 2 [6]): > 50 µM (inactive)
CC50 [7]: 42.4 µM (active)

IC50 [8]: 34.1 µM (inactive)
SMILES: Cc1ccccc1CN1C[C@@H]2C[C@@H](c3ccc4nsnc4c3)N3CCC[C@@]23C1=O

SMILES: C[C@@H]1CN([C@H](C)CO)C(=O)Cc2cc(NS(=O)(=O)c3ccc(Cl)cc3)ccc2O[C@@H]1CN(C)S(=O)(=O)c1ccc(F)cc1
AC50 [9]: 7.57 µM (active)

SMILES: C[C@H](CO)N1C[C@H](C)[C@H](CN(C)Cc2ccc(C(=O)Nc3ccccc3N)cc2)Oc2ccc(NS(=O)(=O)c3ccc(Cl)cc3)cc2CC1=O
AC50 [9]: 1.91 µM (active)
